Key:
CHRM5 = target: T1, CHRM5 (Homo sapiens, UniProt P08912); experiment: NanoBRET screen HiBiT-CHRM5 in HEK293; type: binding
T1 construct: purchased Promega (in-house HiBiT-GPCR construct library, NanoBRET)
T1 sequence (P08912 1-532): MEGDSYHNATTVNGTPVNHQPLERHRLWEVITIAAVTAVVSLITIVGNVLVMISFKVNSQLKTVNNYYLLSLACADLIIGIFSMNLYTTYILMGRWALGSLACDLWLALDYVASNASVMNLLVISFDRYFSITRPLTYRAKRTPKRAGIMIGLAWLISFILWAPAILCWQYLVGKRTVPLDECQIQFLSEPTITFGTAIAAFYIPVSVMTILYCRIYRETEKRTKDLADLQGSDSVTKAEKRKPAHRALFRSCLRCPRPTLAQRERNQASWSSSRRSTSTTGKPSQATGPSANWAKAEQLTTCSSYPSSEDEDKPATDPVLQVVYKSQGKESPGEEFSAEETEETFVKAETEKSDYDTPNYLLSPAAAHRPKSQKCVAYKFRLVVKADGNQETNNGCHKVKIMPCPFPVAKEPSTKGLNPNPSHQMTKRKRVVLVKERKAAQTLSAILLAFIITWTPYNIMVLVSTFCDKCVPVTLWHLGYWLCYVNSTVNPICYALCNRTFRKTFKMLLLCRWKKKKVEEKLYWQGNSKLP
Method: (§1) Each tracer candidate was screened across the entire library of HiBiT-GPCR constructs using NanoBRET as the detection modality. As depicted in Figure 4A, the specificity of interactions was evaluated through decrease in BRET due to competitive displacement of a bound tracer by excess parental compound. Each tracer was analyzed for binding to each HiBiT-GPCR fusion in the absence and in the presence of competing parental compound. Briefly, HEK293 cells were transfected with HiBiT-GPCR constructs diluted into promoterless DNA to reduce expression and maximize translocation to the cell surface. Each tracer candidate was then screened at concentrations of 1 μM and 0.1 μM across cells expressing these fusions. Cells were treated for 1.5 h with tracer either alone or in the presence of 20 μM competing parental compound (i.e., control). BRET was measured upon addition of purified LgBiT and subsequent complementation with HiBiT genetically fused to a GPCR. The specificity of interactions was assessed through a decrease in BRET signal due to competitive displacement of the bound tracer. To further gauge the robustness of these interactions, the fold response over the control (i.e., BRETtracer/BRETcontrol) was calculated. We chose a 1.5-fold response, which translates to ≥7-fold signal over noise as the minimal threshold required to score an interaction as positive.
(§2) HiBiT-GPCR DNA constructs were diluted in 10 mM Tris pH 8 to a final concentration of 0.01 μg/μL, arrayed in 96-well plates and stored at −20 °C. For transfection, HEK293 cells were suspended in Opti-MEM (without phenol red) supplemented with 2% fetal bovine serum (Seradigm) and 100 units/mL penicillin–streptomycin (Gibco) at a final concentration of 220,000 cells/mL and dispensed into white 96-well plates at 90 μL/well. Subsequent transfections and screens were carried using an Agilent Bravo Automated Liquid Handling Platform. First, the 96-well HiBiT DNA arrays were diluted 25-fold in Opti-MEM (without serum or phenol red) to a final concentration of 0.0004 μg/μL and 20 μL of the diluted DNAs were transferred into new 96-well plates. Next, promoterless carrier DNA (1 μg/μL) was diluted 25-fold (0.04 μg/μL) and then dispensed into the diluted arrays at 20 μL/well. Following brief mixing, Viafect transfection reagent (Promega) diluted 16-fold into Opti-MEM was dispensed into the plates at 40 μL/well. After mixing by pipetting, plates were incubated for 10 min on the pipetting station deck. The DNA-transfection reagent complexes were then added to plates containing cells. To facilitate the screen, 10 μL of DNA-transfection reagent complexes were added in duplicates to the top 4 and bottom 4 rows, resulting in two identical 48-well arrays per plate. Plates with transfected cells were incubated for 18–20 h at 37 °C/5% CO2. A screen of each tracer across the entire library using two different concentrations requires duplicate plates of transfected cells. Depending on the number of tracers being screened, transfections can be scaled up using the same ratios. The next day, for each tracer, four 20× screening solutions in tracer dilution buffer (Promega) were prepared: two duplicates at final concentration of 20 μM and two duplicates at a final concentration of 2 μM. […] The four resulting solutions were diluted 4-fold in Opti-MEM without serum or phenol red to generate 5× solutions (5 µM and 0.5 µM tracer +/− 100 μM competing compound). To screen the library, a BioTek MultiFlo FX liquid dispenser was used to dispense 22.5 µL of tracer solution to the top 4 rows and 22.5 µL tracer + competing compound solution to the 4 bottom rows. Plates were briefly mixed on an orbital shaker and incubated for 1.5 h at room temperature. […] Plates were briefly mixed on an orbital shaker and incubated for 15 min to allow complementation.

RXFP1 = target: T2, RXFP1 (Homo sapiens, UniProt Q9HBX9); experiment: NanoBRET screen HiBiT-RXFP1 in HEK293; type: binding
T2 construct: purchased Promega (in-house HiBiT-GPCR construct library, NanoBRET)
T2 sequence (Q9HBX9 1-757): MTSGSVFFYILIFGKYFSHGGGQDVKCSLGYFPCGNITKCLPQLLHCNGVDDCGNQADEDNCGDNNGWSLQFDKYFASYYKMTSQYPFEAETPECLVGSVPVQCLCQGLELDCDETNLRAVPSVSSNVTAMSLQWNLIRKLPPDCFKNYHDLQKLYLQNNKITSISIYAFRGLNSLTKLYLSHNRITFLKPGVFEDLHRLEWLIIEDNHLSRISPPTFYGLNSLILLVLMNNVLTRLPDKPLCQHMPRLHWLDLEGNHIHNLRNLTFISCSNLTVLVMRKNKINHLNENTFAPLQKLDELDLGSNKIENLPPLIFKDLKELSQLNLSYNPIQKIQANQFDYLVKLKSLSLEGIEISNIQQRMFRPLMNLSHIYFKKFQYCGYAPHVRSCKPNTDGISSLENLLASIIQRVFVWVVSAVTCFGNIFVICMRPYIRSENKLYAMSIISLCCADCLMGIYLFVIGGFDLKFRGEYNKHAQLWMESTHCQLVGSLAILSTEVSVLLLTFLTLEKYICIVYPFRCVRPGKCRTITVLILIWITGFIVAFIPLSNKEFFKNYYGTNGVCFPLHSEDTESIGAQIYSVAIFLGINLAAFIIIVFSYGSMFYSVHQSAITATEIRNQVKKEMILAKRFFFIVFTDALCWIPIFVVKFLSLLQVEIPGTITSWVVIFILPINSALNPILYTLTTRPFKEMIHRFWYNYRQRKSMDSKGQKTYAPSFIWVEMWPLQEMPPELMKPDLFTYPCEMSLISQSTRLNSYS
Method: as §1, §2

| Structure (SMILES) | NanoBRET Fold Response (CHRM5; CHRM5, tracer 0.1μM) | NanoBRET Fold Response (CHRM5; CHRM5, tracer 1μM) | NanoBRET Fold Response (RXFP1; RXFP1, tracer 0.1μM) | NanoBRET Fold Response (RXFP1; RXFP1, tracer 1μM) | other results |
| --- | --- | --- | --- | --- | --- |
| O=C(CCc1ccc2n1[B-](F)(F)[N+]1=C(c3ccc[nH]3)C=CC1=C2)NCc1ccc(C(=O)NCCOCCC(=O)N[C@@H]2CC[C@@]3(O)[C@H]4Cc5ccc(O)c6c5[C@@]3(CCN4CC3CC3)[C@H]2O6)cc1 [Naltrexone-3-NB590] | 1.18 | 0.79 | 1.31 | 1.24 | – |
| N#CN=C(NCCCOc1cccc(CN2CCCCC2)c1)NCCNC(=O)CCOCCOCCOCCOCCNC(=O)CCc1ccc2n1[B-](F)(F)[N+]1=C(c3ccc[nH]3)C=CC1=C2 [Aminopotentidine-2-NB590] | 1.02 | 1.10 | 0.79 | 1.28 | – |
| COc1ccc2c(n1)c(CCNC(C)=O)cn2CCNC(=O)CCc1ccc2n1[B-](F)(F)[N+]1=C(c3ccc[nH]3)C=CC1=C2 [Azamelatonin-1-NB590] | – | – | – | – | NanoBRET Fold Response (CHRM5; 0.1μM tracer): 0.89; NanoBRET Fold Response (CHRM5; 1μM tracer): 1.23; NanoBRET Fold Response (RXFP1; 0.1μM tracer): 1.38; NanoBRET Fold Response (RXFP1; 1μM tracer): 1.20 |
| CC(C)N(CC[C@H](c1ccccc1)c1cc(CCNC(=O)c2ccc(CNC(=O)CCc3ccc4n3[B-](F)(F)[N+]3=C(c5ccc[nH]5)C=CC3=C4)cc2)ccc1O)C(C)C [Tolterodine-BZ-NB590] | 2.88 | 1.94 | 1.12 | 1.23 | – |
| CN1CCN(C2=Nc3cc(Cl)ccc3Nc3ccc(CNC(=O)CCOCCOCCOCCOCCNC(=O)CCc4ccc5n4[B-](F)(F)[N+]4=C(c6ccc[nH]6)C=CC4=C5)cc32)CC1 [Clozapine-b-2-NB590] | – | – | – | – | NanoBRET Fold Response (CHRM5; CHRM5, 0.1μM tracer): 1.00; NanoBRET Fold Response (RXFP1; RXFP1, 0.1μM tracer): 0.90; NanoBRET Fold Response (RXFP1; RXFP1, 1μM tracer): 0.75 |

Reference: paper PMC8151276, “An Integrated Approach toward NanoBRET Tracers for Analysis of GPCR Ligand Engagement” (Molecules, 2021)
